How the values were obtained:
[1] = test system: Radical scavenging activity; assay: Antioxidant activity assessed as DPPH radical scavenging activity after 0.5 hrs; format: functional
[2] = Antioxidant activity assessed as trolox equivalent of ABTS radical scavenging activity in aqueous phase by metmyoglobin assay; format: functional

IC50 [1]	Compound	Activity [2]
20.1 µM	O=C(/C=C/c1ccc(O)c(O)c1)OC[C@H]1O[C@H](O[C@]2(CO)O[C@H](CO)[C@@H](O)[C@@H]2O)[C@H](O)[C@@H](O)[C@@H]1O	3.7
19.8 µM	O=C(/C=C/c1ccc(O)c(O)c1)O[C@H]1O[C@@H](CO[C@H]2OC[C@@](O)(CO)[C@@H]2O)[C@H](O)[C@@H](O)[C@@H]1O	3.86
